Each compound was assayed against T1, human GlyT-2 (Homo sapiens, UniProt Q9Y345) (assay: Assay of transport via GlyT-2 transporters: [3H]glycine uptake by stably transfected cultured cells). Settings: cells stably transfected with human GlyT-2; 50 nM [3H]glycine; ten minutes at 37° C.; read-out: GlyT1 uptake IC50.
T1 construct: expressed in transfected cells; elsewhere 'preferably QT-6 cells derived from quail fibroblasts'
T1 sequence (Q9Y345 1-797): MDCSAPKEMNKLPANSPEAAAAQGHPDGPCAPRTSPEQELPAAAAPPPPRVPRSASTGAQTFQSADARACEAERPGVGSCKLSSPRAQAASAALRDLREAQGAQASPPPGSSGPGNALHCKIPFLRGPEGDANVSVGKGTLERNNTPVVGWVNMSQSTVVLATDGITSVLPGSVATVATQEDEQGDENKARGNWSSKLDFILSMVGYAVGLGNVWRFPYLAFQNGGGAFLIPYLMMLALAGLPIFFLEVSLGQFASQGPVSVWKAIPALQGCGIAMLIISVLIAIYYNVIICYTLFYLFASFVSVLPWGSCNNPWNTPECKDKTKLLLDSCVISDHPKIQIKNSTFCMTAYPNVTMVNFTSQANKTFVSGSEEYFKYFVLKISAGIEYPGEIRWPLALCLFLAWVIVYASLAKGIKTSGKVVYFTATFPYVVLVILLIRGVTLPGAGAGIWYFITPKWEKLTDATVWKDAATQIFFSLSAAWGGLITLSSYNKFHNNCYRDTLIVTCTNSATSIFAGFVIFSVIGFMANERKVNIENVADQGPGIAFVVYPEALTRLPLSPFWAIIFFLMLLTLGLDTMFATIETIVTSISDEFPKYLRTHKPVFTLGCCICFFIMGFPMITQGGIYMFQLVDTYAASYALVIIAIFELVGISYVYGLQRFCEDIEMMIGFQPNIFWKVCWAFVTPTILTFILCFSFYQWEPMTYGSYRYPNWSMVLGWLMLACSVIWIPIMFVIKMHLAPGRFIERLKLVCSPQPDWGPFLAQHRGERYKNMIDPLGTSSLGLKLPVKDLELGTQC
Type: cell-based
Description: This example illustrates a method for the measurement of glycine uptake by transfected cultured cells.
Cells stably transfected with human GlyT-2 (the homolog of the rat GlyT-2 described by Liu et al., J. Biological Chemistry, 268, 1993:22802-22808) were washed twice with HEPES buffered saline (HBS). The cells were then incubated ten minutes at 37° C., after which a solution containing 50 nM [^3H]glycine (17.5 Ci/mmol) and either (a) no potential competitor, (b) […] or (c) a concentration of a candidate drug. A range of concentrations of the candidate drug was used to generate data for calculating the concentration resulting in 50% of the effect (e.g., the IC50's which are the concentration of drug inhibiting glycine uptake by 50%). The cells were then incubated another ten minutes at 37° C., after which the cells were aspirated and washed three times with ice-cold HBS. The cells were solubilized in scintillant, shaken for thirty minutes, and the radioactivity in the cells was counted using a scintillation counter. Data were compared between the same cells contacted and not contacted by the candidate agent.

Row | SMILES | IC50
1 | COc1ccc(NC(=S)NC(C(=O)Nc2c(C)cccc2C)c2ccccc2)c([N+](=O)[O-])c1 (stereo not shown) [Example E33.6, N-(2,6-dimethylphenyl)-2-[3-(4-methoxy-2-nitrophenyl)-thioureido]-2-phenyl acetamide] | 34.4 nM
2 | Cc1cccc(C)c1NC(=O)C(NC(=S)Nc1ccccc1S(=O)(=O)N(C)C)c1ccccc1 (stereo not shown) [Example E33.2, N-(2,6-dimethylphenyl)-2-[3-(2-N,N-dimethylsulphonamidophenyl)-thioureido]-2-phenyl acetamide] | 48 nM
3 | Cc1ccccc1NC(=O)[C@H](NC(=S)Nc1ccccc1[N+](=O)[O-])c1ccccc1 [Example E4.2] | 77.4 nM
4 | Cc1cccc(C)c1NC(=O)C(NC(=S)Nc1ccc(OCCN(C)C)cc1C(F)(F)F)c1ccccc1 (stereo not shown) [Example E33.8, N-(2.6-dimethylphenyl)-2-[3-(4-N,N-dimethylaminoethoxy-2-trifluoromethylphenyl)-thioureido]-2-phenyl acetamide] | 115 nM
5 | CCOc1ccc(NC(=S)NC(C(=O)Nc2c(C)cccc2C)c2ccccc2)c([N+](=O)[O-])c1 (stereo not shown) [Example E33.1, N-(2,6-dimethylphenyl)-2-[3-(4-ethoxy-2-nitrophenyl)-thioureido]-2-phenyl acetamide] | 49.2 nM
6 | Cc1cccc(C)c1NC(=O)C(NC(=S)Nc1ccc(S(=O)(=O)N(C)C)cc1[N+](=O)[O-])c1ccccc1 (stereo not shown) [Example E33.5] | 14.2 nM
7 | COc1ccc(NC(=S)NC(CC(C)C)C(=O)Nc2c(C)cccc2C)c([N+](=O)[O-])c1 (stereo not shown) [Example E51.3, N-(2.6-dimethylphenyl)-2-[3-(4-methoxy-2-nitrophenyl)-thioureido]-4-methylpentanamide] | 112 nM

The remaining compounds from weak to strong by IC50, led by results:

Row | IC50 | SMILES
8 | 182 nM | Cc1cccc(C)c1NC(=O)C(NC(=S)Nc1ccc(OCCN(C)C)cc1[N+](=O)[O-])c1ccccc1 (stereo not shown) [Example E33.4, N-(2.6-dimethylphenyl)-2-[3-(4-(2-N,N-dimethylamino)ethoxy-2-nitrophenyl)-thioureido]-2-phenyl acetamide]
9 | 172 nM | CCOc1ccc(NC(=S)NC(C(=O)Nc2ccccc2C)c2ccccc2)c([N+](=O)[O-])c1 (stereo not shown) [Example E4.3, N-(2-methylphenyl)-2-[3-(4-ethoxy-2-nitrophenyl)-thioureido]-2-phenyl acetamide]
10 | 90.8 nM | COc1ccc(NC(=S)N[C@H](CC(C)C)C(=O)Nc2c(C)cccc2C)c([N+](=O)[O-])c1 [E51.1*]
11 | 83.8 nM | COc1ccc(NC(=S)NC(C(=O)Nc2ccccc2C)c2ccccc2)c([N+](=O)[O-])c1 (stereo not shown) [Example E4.4, N-(2-methylphenyl)-2-[3-(2-nitro-4-methoxyphenyl)-thioureido]-2-phenyl acetamide]
12 | 52.2 nM | COc1ccc(NC(=S)NC(C(=O)Nc2c(C)cccc2C(C)C)c2ccccc2)c([N+](=O)[O-])c1 (stereo not shown) [Example E28.1, N-(2-isopropyl-6-methylphenyl)-2-[3-(4-methoxy-2-nitrophenyl)-thioureido]-2-phenyl acetamide]
13 | 22.8 nM | COc1ccc(NC(=S)NC(C(=O)Nc2c(C)cccc2Cl)c2ccccc2)c([N+](=O)[O-])c1 (stereo not shown) [Example E29.1, N-(2-chloro-6-methylphenyl)-2-[3-(4-methoxy-2-nitrophenyl)-thioureido]-2-phenyl acetamide]
